These results are taken from patent US10550105B2 (Ribon Therapeutics Inc., priority 2018, dated 2020).

In the experiment the target is PARP7 (Homo sapiens (Human), UniProt Q7Z3E1). In words: Enzymatic assay for inhibition of PARP7: TR-FRET displacement of biotinylated Probe A from the TIPARP active site. In kind it is binding. To be noted: Table A-1. The essentials:
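Displacement of biotinylated Probe A from TIPARP was measured as the 665/615 nm time-resolved FRET ratio (excitation 320 nm, 90 μs delay) after a further 30 min at 25 °C. Inhibition across compound concentrations was fitted by dose-response regression, with the Hill slope free or fixed at 1 (3-parameter fit).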

SMILES strings stand for the structures.

Sequence of PARP7 (Q7Z3E1 whole entry): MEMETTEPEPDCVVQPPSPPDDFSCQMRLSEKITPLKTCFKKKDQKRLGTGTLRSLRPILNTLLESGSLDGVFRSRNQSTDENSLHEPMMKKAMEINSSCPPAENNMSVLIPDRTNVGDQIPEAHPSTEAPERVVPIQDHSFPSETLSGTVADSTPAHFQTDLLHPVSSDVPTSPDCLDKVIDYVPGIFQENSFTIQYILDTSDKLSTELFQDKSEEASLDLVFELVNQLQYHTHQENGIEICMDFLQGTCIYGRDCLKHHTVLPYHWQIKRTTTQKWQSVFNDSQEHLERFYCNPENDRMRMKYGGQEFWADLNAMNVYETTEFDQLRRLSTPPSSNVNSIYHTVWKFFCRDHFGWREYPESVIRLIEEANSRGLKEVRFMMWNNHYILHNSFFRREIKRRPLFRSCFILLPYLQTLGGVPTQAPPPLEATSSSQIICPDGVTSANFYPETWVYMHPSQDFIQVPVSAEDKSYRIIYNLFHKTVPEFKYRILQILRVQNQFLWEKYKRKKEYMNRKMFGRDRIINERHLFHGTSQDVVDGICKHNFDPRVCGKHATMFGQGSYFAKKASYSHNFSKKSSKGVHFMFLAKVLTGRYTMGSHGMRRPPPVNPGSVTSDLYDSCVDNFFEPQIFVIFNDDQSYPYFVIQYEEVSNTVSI

As a reminder, the IC50 is the concentration that gives 50% inhibition. A high value points to a need for much substance. Consider `CC(=O)N1CCC(Oc2cccc3c2CN(c2cn[nH]c(=O)c2Cl)C3)CC1` [Example 258, 5-(4-((1-Acetylpiperidin-4-yl)oxy)isoindolin-2-yl)-4-chloropyridazin-3(2H)-one], for which the IC50 was at least 1 µM.
With `CN1CCC(Oc2cccc3c2CN(c2cn[nH]c(=O)c2Cl)C3)C1` (stereo not shown) [Example 259, 4-Chloro-5-(4-((1-methylpyrrolidin-3-yl)oxy)isoindolin-2-yl)pyridazin-3(2H)-one], the IC50 is at least 1 µM.
The value for `COCc1cccc2c1CN(c1cn[nH]c(=O)c1C(F)(F)F)C2` [Example 260, 5-(4-(Methoxymethyl)isoindolin-2-yl)-4-(trifluoromethyl)pyridazin-3(2H)-one] was under 0.1 µM.
As for `O=c1[nH]ncc(N2Cc3cccc(CO)c3C2)c1C(F)(F)F` [Example 261, 5-(4-(Hydroxymethyl)isoindolin-2-yl)-4-(trifluoromethyl)pyridazin-3(2H)-one], the IC50 was in the range of 0.1 to 1 µM.
The value for `CNCc1cccc2c1CN(c1cn[nH]c(=O)c1C(F)(F)F)C2` [Example 262, 5-(4-((Methylamino)methyl)isoindolin-2-yl)-4-(trifluoromethyl)pyridazin-3(2H)-one] was at least 1 µM; that for `CN1CCC(Oc2ccc3c(c2)CN(c2cn[nH]c(=O)c2C(F)(F)F)C3)CC1` [Example 263, 5-(5-((1-Methylpiperidin-4-yl)oxy)isoindolin-2-yl)-4-(trifluoromethyl)pyridazin-3(2H)-one] was under 0.1 µM.
The value for `CC(=O)NCC1c2ccccc2CN1c1cn[nH]c(=O)c1C(F)(F)F` (stereo not shown) [Example 264, N-((2-(6-Oxo-5-(trifluoromethyl)-1,6-dihydropyridazin-4-yl)isoindolin-1-yl)methyl)acetamide] was at least 1 µM; that for `O=c1[nH]ncc(N2Cc3cccc(Cl)c3C2)c1C(F)(F)F` [Example 265, 5-(4-Chloroisoindolin-2-yl)-4-(trifluoromethyl)pyridazin-3(2H)-one] was under 0.1 µM.
The value for `O=c1[nH]ncc(N2Cc3cccc(NCc4ccncc4)c3C2)c1C(F)(F)F` [Example 266, 5-(4-((Pyridin-4-ylmethyl)amino)isoindolin-2-yl)-4-(trifluoromethyl)pyridazin-3(2H)-one] was under 0.1 µM; that for `COc1ccc(F)c2c1CN(c1cn[nH]c(=O)c1C(F)(F)F)C2` [Example 267, 5-(4-Fluoro-7-methoxyisoindolin-2-yl)-4-(trifluoromethyl)pyridazin-3(2H)-one] was under 0.1 µM; that for `O=c1[nH]ncc(N2Cc3cccc(OC4CCCOC4)c3C2)c1C(F)(F)F` (stereo not shown) [Example 268, 5-(4-((Tetrahydro-2H-pyran-3-yl)oxy)isoindolin-2-yl)-4-(trifluoromethyl)pyridazin-3(2H)-one] was under 0.1 µM.
With `NC(=O)c1cccc2c1CN(c1cn[nH]c(=O)c1C(F)(F)F)C2` [Example 269, 2-(6-Oxo-5-(trifluoromethyl)-1,6-dihydropyridazin-4-yl)isoindoline-4-carboxamide], the IC50 is under 0.1 µM.
Molecule `CN(CC1CCCO1)c1cccc2c1CN(c1cn[nH]c(=O)c1C(F)(F)F)C2` (stereo not shown) [Example 270, 5-(4-(Methyl((tetrahydrofuran-2-yl)methyl)amino)isoindolin-2-yl)-4-(trifluoromethyl)pyridazin-3(2H)-one] yielded an IC50 of under 0.1 µM.
The value for `CC(Nc1cccc2c1CN(c1cn[nH]c(=O)c1C(F)(F)F)C2)c1ccncc1` (stereo not shown) [Example 271, 5-(4-((1-(Pyridin-4-yl)ethyl)amino)isoindolin-2-yl)-4-(trifluoromethyl)pyridazin-3(2H)-one] was under 0.1 µM; that for `CCc1c(N2Cc3cccc(OC4CCNCC4)c3C2)cn[nH]c1=O` [Example 272, 4-Ethyl-5-(4-(piperidin-4-yloxy)isoindolin-2-yl)pyridazin-3(2H)-one] was at least 1 µM.
The value for `COc1cc(F)c2c(c1)CN(c1cn[nH]c(=O)c1C(F)(F)F)C2` [Example 273, 5-(4-Fluoro-6-methoxyisoindolin-2-yl)-4-(trifluoromethyl)pyridazin-3(2H)-one] was under 0.1 µM.
